Source: PubChem BioAssay AID200 (DTP/NCI, 2004)
Values joined by “and” are separate entries in the source; they are usually repeats but may differ in a detail not shown here. Equal values may be shown once. Inconclusive results and toxic doses are left out.

Tested on: B6C3F1 mice, B16 melanoma ip, median survival T/C
Test: NCI In Vivo Anticancer Drug Screen. Data for tumor model B16 Melanoma (intraperitoneal) in B6C3F1 mice
Details: endpoint: median survival time, higher = longer survival
Outline: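 Transplantable tumor in mice; treated vs vehicle control groups; survival or tumor size measured; value = T/C ratio.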

[1] = dose: 25.0 mg/kg/injection, schedule: Q01DX009 (ip), vehicle: saline with Tween-80
[2] = dose: 50.0 mg/kg/injection, schedule: Q01DX009 (ip), vehicle: saline with Tween-80
[3] = dose: 100.0 mg/kg/injection, schedule: Q01DX009 (ip), vehicle: saline with Tween-80

SMILES: CC(=O)OC1C(O)C(C)OC(OC2C(OC(=O)C3CCC4C(C3)OC3(CC(OC(=O)/C=C/c5ccccc5)C(C)CO3)C43CO3)OC(C)C(O)C2OC(C)=O)C1O (configuration not stated)
- T/C (dose: 0.38 mg/kg/injection, schedule: Q03HX024 (ip), vehicle: other): 111 % of control
- T/C (dose: 0.75 mg/kg/injection, schedule: Q03HX024 (ip), vehicle: other): 120 % of control
- T/C (dose: 0.9 mg/kg/injection, schedule: Q01DX005 (iv), vehicle: other): 111 % of control
- T/C (dose: 1.0 mg/kg/injection, schedule: Q01DX009 (ip), vehicle: distilled water + alcohol): 122 % of control
- T/C (dose: 1.0 mg/kg/injection, schedule: Q01DX009 (ip), vehicle: other): 120 % of control and 122 % of control
- T/C (dose: 1.0 mg/kg/injection, schedule: Q01DX009 (ip), vehicle: saline + Tween-80 + alcohol): 116 % of control
- T/C (dose: 1.0 mg/kg/injection, schedule: Q01DX009 (ip), vehicle: saline + alcohol): 110 % of control and 115 % of control
- T/C (dose: 1.13 mg/kg/injection, schedule: Q03HX008 (ip), vehicle: other): 123 % of control
- T/C (dose: 1.8 mg/kg/injection, schedule: Q01DX005 (iv), vehicle: other): 103 % of control
- T/C (dose: 2.0 mg/kg/injection, schedule: Q01DX009 (ip), vehicle: distilled water + alcohol): 158 % of control
- T/C (dose: 2.0 mg/kg/injection, schedule: Q01DX009 (ip), vehicle: other): 152 % of control
- T/C (dose: 2.0 mg/kg/injection, schedule: Q01DX009 (ip), vehicle: saline + Tween-80 + alcohol): 157 % of control
- T/C (dose: 2.25 mg/kg/injection, schedule: Q01DX001 (iv), vehicle: other): 114 % of control
- T/C (dose: 2.25 mg/kg/injection, schedule: Q03HX008 (ip), vehicle: other): 119 % of control
- T/C (dose: 3.0 mg/kg/injection, schedule: Q04DX003 (ip), vehicle: other): 122 % of control
- T/C (dose: 3.6 mg/kg/injection, schedule: Q01DX005 (iv), vehicle: other): 107 % of control
- T/C (dose: 4.0 mg/kg/injection, schedule: Q01DX009 (ip), vehicle: distilled water + alcohol): 184 % of control
- T/C (dose: 4.0 mg/kg/injection, schedule: Q01DX009 (ip), vehicle: other): 175 % of control
- T/C (dose: 4.0 mg/kg/injection, schedule: Q01DX009 (ip), vehicle: saline + Tween-80 + alcohol): 185 % of control
- T/C (dose: 4.0 mg/kg/injection, schedule: Q01DX009 (ip), vehicle: saline): 163 % of control
- T/C (dose: 4.0 mg/kg/injection, schedule: Q01DX009 (oral), vehicle: other): 102 % of control
- T/C (dose: 4.0 mg/kg/injection, schedule: Q01DX009 (sc), vehicle: other): 108 % of control
- T/C (dose: 4.5 mg/kg/injection, schedule: Q01DX001 (ip), vehicle: other): 117 % of control
- T/C (dose: 4.5 mg/kg/injection, schedule: Q01DX001 (iv), vehicle: other): 105 % of control
- T/C (dose: 7.2 mg/kg/injection, schedule: Q01DX005 (iv), vehicle: other): 119 % of control
- T/C (dose: 8.0 mg/kg/injection, schedule: Q01DX009 (ip), vehicle: distilled water + alcohol): 176 % of control
- T/C (dose: 8.0 mg/kg/injection, schedule: Q01DX009 (ip), vehicle: other): 158 % of control and 174 % of control
- T/C (dose: 8.0 mg/kg/injection, schedule: Q01DX009 (ip), vehicle: saline + Tween-80 + alcohol): 182 % of control
- T/C (dose: 8.0 mg/kg/injection, schedule: Q01DX009 (ip), vehicle: saline): 161 % of control
- T/C (dose: 8.0 mg/kg/injection, schedule: Q01DX009 (oral), vehicle: other): 104 % of control
- T/C (dose: 8.0 mg/kg/injection, schedule: Q01DX009 (sc), vehicle: other): 106 % of control
- T/C (dose: 8.0 mg/kg/injection, schedule: Q02DX005 (ip), vehicle: saline + Tween-80 + alcohol): 158 % of control
- T/C (dose: 9.0 mg/kg/injection, schedule: Q01DX001 (ip), vehicle: other): 114 % of control
- T/C (dose: 9.0 mg/kg/injection, schedule: Q01DX001 (iv), vehicle: other): 111 % of control
- T/C (dose: 12.0 mg/kg/injection, schedule: Q04DX003 (ip), vehicle: saline + alcohol): 124 % of control
- T/C (dose: 14.4 mg/kg/injection, schedule: Q01DX005 (ip), vehicle: other): 160 % of control
- T/C (dose: 14.4 mg/kg/injection, schedule: Q01DX005 (iv), vehicle: other): 113 % of control
- T/C (dose: 16.0 mg/kg/injection, schedule: Q01DX009 (ip), vehicle: distilled water + alcohol): 150 % of control
- T/C (dose: 16.0 mg/kg/injection, schedule: Q01DX009 (ip), vehicle: other): 177 % of control and 188 % of control
- T/C (dose: 16.0 mg/kg/injection, schedule: Q01DX009 (ip), vehicle: saline + Tween-80 + alcohol): 179 % of control
- T/C (dose: 16.0 mg/kg/injection, schedule: Q01DX009 (oral), vehicle: other): 102 % of control
- T/C (dose: 16.0 mg/kg/injection, schedule: Q01DX009 (sc), vehicle: other): 114 % of control
- T/C (dose: 16.0 mg/kg/injection, schedule: Q02DX005 (ip), vehicle: saline + Tween-80 + alcohol): 166 % of control
- T/C (dose: 16.0 mg/kg/injection, schedule: Q02DX005 (ip), vehicle: saline + alcohol): 155 % of control
- T/C (dose: 18.0 mg/kg/injection, schedule: Q01DX001 (ip), vehicle: other): 120 % of control
- T/C (dose: 18.0 mg/kg/injection, schedule: Q01DX001 (iv), vehicle: other): 117 % of control
- T/C (dose: 32.0 mg/kg/injection, schedule: Q01DX009 (oral), vehicle: other): 101 % of control
- T/C (dose: 32.0 mg/kg/injection, schedule: Q01DX009 (sc), vehicle: other): 112 % of control
- T/C (dose: 32.0 mg/kg/injection, schedule: Q02DX005 (ip), vehicle: saline + alcohol): 154 % of control
- T/C (dose: 36.0 mg/kg/injection, schedule: Q01DX001 (ip), vehicle: other): 119 % of control
- T/C (dose: 96.0 mg/kg/injection, schedule: Q04DX003 (ip), vehicle: saline + Tween-80 + alcohol): 94 % of control

SMILES: [O-][n+]1c(CN2CCCCC2)nc2cccc3c2c1-c1ccccc1-3
- T/C (dose: 12.5 mg/kg/injection, schedule: Q01DX009 (ip), vehicle: saline with Tween-80): 98 % of control
- T/C [1]: 88 % of control
- T/C [2]: 102 % of control
- T/C [3]: 91 % of control
- T/C (dose: 400.0 mg/kg/injection, schedule: Q01DX009 (ip), vehicle: saline with Tween-80): 103 % of control

SMILES: CC1=CC2c3cccc4[nH]cc(c34)CC2N(C)C1 (configuration not stated)
- T/C (dose: 2.5 mg/kg/injection, schedule: Q01DX009 (ip), vehicle: suspension in saline): 103 % of control
- T/C (dose: 5.0 mg/kg/injection, schedule: Q01DX009 (ip), vehicle: suspension in saline): 101 % of control
- T/C (dose: 10.0 mg/kg/injection, schedule: Q01DX009 (ip), vehicle: suspension in saline): 101 % of control
- T/C (dose: 20.0 mg/kg/injection, schedule: Q01DX009 (ip), vehicle: suspension in saline): 95 % of control

SMILES: O=C(NC(CO)C(=O)O)OCc1ccccc1 (configuration not stated)
- T/C [1]: 97 % of control
- T/C [2]: 98 % of control
- T/C [3]: 87 % of control and 102 % of control

SMILES: CN1CCc2c(c3ccccc3c3ccccc23)C1
- T/C (dose: 3.12 mg/kg/injection, schedule: Q01DX009 (ip), vehicle: Klucel (hydroxypropylcellulose) (HPC)): 116 % of control and 94 % of control
- T/C (dose: 6.25 mg/kg/injection, schedule: Q01DX009 (ip), vehicle: Klucel (hydroxypropylcellulose) (HPC)): 87 % of control and 99 % of control
- T/C (dose: 12.5 mg/kg/injection, schedule: Q01DX009 (ip), vehicle: Klucel (hydroxypropylcellulose) (HPC)): 88 % of control and 102 % of control and 106 % of control
- T/C (dose: 25.0 mg/kg/injection, schedule: Q01DX009 (ip), vehicle: Klucel (hydroxypropylcellulose) (HPC)): 90 % of control and 102 % of control
- T/C (dose: 50.0 mg/kg/injection, schedule: Q01DX009 (ip), vehicle: Klucel (hydroxypropylcellulose) (HPC)): 116 % of control and 97 % of control and 102 % of control
- T/C (dose: 100.0 mg/kg/injection, schedule: Q01DX009 (ip), vehicle: Klucel (hydroxypropylcellulose) (HPC)): 118 % of control and 92 % of control

SMILES: COc1cccc2c1C(=O)c1c(O)c3c(c(O)c1C2=O)CC(O)(C(=O)CO)CC3OC1CC(N)C(O)C(C)O1 (configuration not stated)
- T/C (dose: 4.1 mg/kg/injection, schedule: Q01DX001 (ip), vehicle: other): 108 % of control
- T/C (dose: 4.5 mg/kg/injection, schedule: Q01DX009 (ip), vehicle: water): 209 % of control
- T/C (dose: 6.9 mg/kg/injection, schedule: Q01DX001 (ip), vehicle: other): 114 % of control
- T/C (dose: 9.0 mg/kg/injection, schedule: Q01DX009 (ip), vehicle: water): 219 % of control
- T/C (dose: 11.5 mg/kg/injection, schedule: Q01DX001 (ip), vehicle: other): 118 % of control
- T/C (dose: 18.0 mg/kg/injection, schedule: Q01DX009 (ip), vehicle: water): 234 % of control
- T/C (dose: 19.2 mg/kg/injection, schedule: Q01DX001 (ip), vehicle: other): 123 % of control
- T/C (dose: 36.0 mg/kg/injection, schedule: Q01DX009 (ip), vehicle: water): 156 % of control
